Measurements from patent US11814444B2, “Cyclic polypeptides for PCSK9 inhibition” (Ra Pharmaceuticals, Inc., priority 2018, dated 2023).
Numbered stars: 1 amine (or outer) side, 2 acyl side, 3 side chain; on linkers, the order of the positions; unused ones are H or OH. Bridge positions count the residues as written; N and C are the ends. Square brackets hold non-standard residues; d marks the D form. Peptide text beside a SMILES is read from it. Pyridine(2,6-diCH2) = c1cc(C[*:1])nc(C[*:2])c1; Trp(7-aza) = N[C@@H](Cc1c[nH]c2ncccc12)C(=O)O; X8 = O=C([C@H](Cc1ccc2[nH]ncc2c1)N[*:1])[*:2]; NMePhe(4-F) = CN[C@@H](Cc1ccc(F)cc1)C(=O)O; Phe(4-F) = N[C@@H](Cc1ccc(F)cc1)C(=O)O; mXylylene = c1cc(C[*:1])cc(C[*:2])c1; pXylylene = c1cc(C[*:2])ccc1C[*:1]; Ala(cPr) = N[C@@H](CC1CC1)C(=O)O; 2Pal = N[C@@H](Cc1ccccn1)C(=O)O; 3Pal = N[C@@H](Cc1cccnc1)C(=O)O; 4Pal = N[C@@H](Cc1ccncc1)C(=O)O; Aad = N[C@@H](CCCC(=O)O)C(=O)O; Tle = CC(C)(C)[C@H](N)C(=O)O; S5 = C=CCCC[C@](C)(N)C(=O)O; Nva = CCC[C@H](N)C(=O)O; Aib = CC(C)(N)C(=O)O; Mpa = O=C(O)CCS

Experiments:
PCSK9 = PCSK9 (Homo sapiens, UniProt Q8NBP7); assay: PCSK9 Alexa FRET Standard assay (displacement of AlexaFluor647 tagged cyclic peptide Reagent A); assay type: binding; details: 0.5 nM PCSK9, 20 nM AF cyclic peptide Reagent A
Chain of PCSK9 (Q8NBP7 153-692): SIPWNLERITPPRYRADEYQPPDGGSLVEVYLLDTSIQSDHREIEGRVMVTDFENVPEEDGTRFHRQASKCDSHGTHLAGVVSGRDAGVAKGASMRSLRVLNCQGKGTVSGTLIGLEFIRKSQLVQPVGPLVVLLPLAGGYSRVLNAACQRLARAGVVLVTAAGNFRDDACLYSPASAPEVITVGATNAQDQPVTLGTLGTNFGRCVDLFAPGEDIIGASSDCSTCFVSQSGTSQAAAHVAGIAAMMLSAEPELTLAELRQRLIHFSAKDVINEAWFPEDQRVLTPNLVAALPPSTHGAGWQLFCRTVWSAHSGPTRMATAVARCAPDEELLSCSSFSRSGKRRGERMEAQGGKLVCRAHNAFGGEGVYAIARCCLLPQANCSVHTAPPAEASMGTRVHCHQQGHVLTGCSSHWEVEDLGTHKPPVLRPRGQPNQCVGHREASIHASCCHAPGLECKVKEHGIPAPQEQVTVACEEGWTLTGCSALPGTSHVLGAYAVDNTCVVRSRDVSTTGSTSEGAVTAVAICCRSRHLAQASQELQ
Procedure: A solution containing 1 nM biotinylated PCSK9+2.5 nM Lance Streptavidin Europium (Strep-Eu) was made in 50 mM HEPES pH 7.4, 0.15 M NaCl, 5 mM CaCl2), 0.01% BSA, and 0.01% Surfactant P20. A separate solution containing 40 nM of the AlexaFluor tagged cyclic peptide was made in the same buffer system. An Echo was used to transfer 0.750 ul of compound to an assay plate followed by the addition of 15 ul of PCSK9+Stept-Eu and 15 ul of AF peptide. The final assay volume was 30.750 ul containing 0.5 nM PCSK9, 1.25 nM Strep-Eu, and 20 nM AF cyclic peptide. The reaction was incubated at room temperature for at least two hours prior to fluorescence measurements using an Envision Multilabel Reader. IC50 values were determined by fitting data to a sigmoidal dose-response curve using nonlinear regression. Ki was then calculated from the IC50 and the KD of AF cyclic peptide. Counts (B-counts) of the europium-labeled PCSK9 were followed to observe if compounds were […]. A fall off of the B-counts likely indicated a false positive of inhibition. Data from this procedure was reported as “A=‘numerical value’ (nanomolar)”

[1] = target: human PCSK9 / human LDLR EGFa domain interaction (Homo sapiens, UniProt Q8NBP7); assay: TR-FRET assay of inhibition of the PCSK9-LDLR protein-protein interaction; assay type: binding; details: 20 nM avitag-biotinylated human PCSK9, 20 nM his-tagged human LDLR EGFa domain, 2 hours, room temperature
Chain of human PCSK9 / human LDLR EGFa domain interaction (Q8NBP7 153-692): as above
Chain of human PCSK9 / human LDLR EGFa domain interaction (Q8NBP7 31-152 partner limits assumed): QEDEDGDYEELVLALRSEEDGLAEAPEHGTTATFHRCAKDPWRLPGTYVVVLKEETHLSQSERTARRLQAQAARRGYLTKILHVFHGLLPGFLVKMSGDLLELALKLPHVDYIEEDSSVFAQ
Outline: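 Avitag-biotinylated human PCSK9 (20 nM) and his-tagged human LDLR EGFa domain (20 nM) were incubated with 5 nM Ulight streptavidin and 5 nM europium anti-6×His for 2 h at room temperature. Buffer: 50 mM HEPES, 150 mM NaCl, 5 mM CaCl2, 0.01% BSA, 0.01% P20. IC50 from 4-parameter fit of dose-response.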

| Compound | IC50 (PCSK9) [µM] | IC50 [1] [µM] |
| --- | --- | --- |
| C=CCCC[C@]1(C)NC(=O)[C@H](CCC)NC(=O)[C@H](Cc2ccc(O)cc2)NC(=O)[C@H](C)NC(=O)C(C)(C)NC(=O)[C@H](Cc2c[nH]c3ncccc23)NC(=O)[C@H]([C@@H](C)O)NC(=O)[C@@H]2CCCN2C(=O)[C@H](Cc2ccc(O)cc2)NC(=O)[C@H](C(C)(C)C)NC(=O)[C@@H](NC(C)=O)CCCC(=O)NCCCC[C@@H](C(N)=O)NC1=O [Compound 053] (Ac-[Aad][Tle]YPT[Trp(7-aza)][Aib]AY[Nva][S5]K-NH2; lactam 1-12) | 1 to 21 | 21 to 50 |
| CCC[C@H](NC(=O)[C@@H](NC(=O)[C@@H](NC(=O)[C@H](Cc1ccc(O)cc1)NC(=O)[C@@H]1CSCc2cccc(n2)CSC[C@H](NC(=O)[C@@H](NC(=O)[C@H](CCC)NC(=O)[C@H](CCCCN)NC(C)=O)[C@@H](C)CC)C(=O)N[C@@H](Cc2ccc(O)cc2)C(=O)NCC(=O)NCC(=O)N[C@@H](CC(=O)O)C(=O)N1)[C@@H](C)CC)[C@@H](C)CC)C(N)=O [Compound 055] (Ac-K[Nva]ICYGGDCYII[Nva]-NH2; linker 4-9 via Pyridine(2,6-diCH2)) | 0.001 to 0.1 | 0.1 to 1 |
| CCC[C@H](NC(C)=O)C(=O)N[C@H]1CSCc2cccc(c2)CSC[C@@H](C(N)=O)NC(=O)[C@H]([C@@H](C)O)NC(=O)[C@H](CCC)NC(=O)[C@H](Cc2c[nH]c3ncccc23)NC(=O)[C@H](CCC(=O)O)NC(=O)[C@H](CCC)NC(=O)[C@H](Cc2c[nH]c3ncccc23)NC(=O)[C@H]([C@@H](C)O)NC(=O)[C@H](Cc2c[nH]cn2)NC(=O)[C@H](Cc2ccc(O)cc2)NC(=O)[C@H](C(C)(C)C)NC1=O [Compound 243] (Ac-[Nva]C[Tle]YHT[Trp(7-aza)][Nva]E[Trp(7-aza)][Nva]TC-NH2; linker 2-13 via mXylylene) | 50 to 100 | – |
| CC(=O)N[C@H]1CSCc2cccc(c2)CSC[C@H](C(N)=O)NC(=O)[C@H]([C@@H](C)O)NC(=O)[C@H](C)NC(=O)[C@H](Cc2ccc(O)cc2)NC(=O)[C@H](CCC(=O)O)NC(=O)[C@H](C)NC(=O)[C@H](Cc2c[nH]c3ncccc23)NC(=O)[C@H]([C@@H](C)O)NC(=O)[C@H](Cc2c[nH]cn2)NC(=O)[C@H](Cc2ccc(O)cc2)NC(=O)[C@H](C(C)(C)C)NC1=O [Compound 245] (Ac-C[Tle]YHT[Trp(7-aza)]AEYAT[dC]-NH2; linker 1-12 via mXylylene) | 50 to 100 | – |
| CCC[C@@H]1NC(=O)[C@H](Cc2ccc(O)cc2)NC(=O)[C@H](CCC(=O)O)NC(=O)[C@H](Cc2c[nH]c3ncccc23)NC(=O)[C@H]([C@@H](C)O)NC(=O)[C@H](Cc2c[nH]cn2)NC(=O)[C@H](Cc2ccc(O)cc2)NC(=O)[C@H](C(C)(C)C)NC(=O)CCSCc2cccc(c2)CSC[C@@H](C(N)=O)NC(=O)[C@H]([C@@H](C)O)NC1=O [Compound 248] ([Mpa][Tle]YHT[Trp(7-aza)]EY[Nva]TC-NH2; linker 1-11 via mXylylene) | 50 to 100 | – |
| CCC[C@@H]1NC(=O)[C@H](Cc2ccc(O)cc2)NC(=O)[C@H](CCC(=O)O)NC(=O)[C@H](CCC)NC(=O)[C@H]([C@@H](C)O)NC(=O)[C@H](Cc2c[nH]cn2)NC(=O)[C@H](Cc2ccc(O)cc2)NC(=O)[C@H](C(C)(C)C)NC(=O)CCSCc2ccc(cc2)CSC[C@@H](C(N)=O)NC(=O)[C@H]([C@@H](C)O)NC1=O [Compound 251] ([Mpa][Tle]YHT[Nva]EY[Nva]TC-NH2; linker 1-11 via pXylylene) | 50 to 100 | – |
| CCC[C@@H]1NC(=O)[C@H](Cc2c[nH]c3ncccc23)NC(=O)[C@H]([C@@H](C)O)NC(=O)[C@H](Cc2c[nH]cn2)NC(=O)[C@H](Cc2ccc(O)cc2)NC(=O)[C@H](C(C)(C)C)NC(=O)CCSCc2cccc(c2)CSC[C@@H](C(N)=O)NC(=O)[C@H]([C@@H](C)O)NC(=O)[C@H](CCC)NC(=O)[C@H](Cc2ccccc2)NC(=O)[C@H](CCC(=O)O)NC1=O [Compound 256] ([Mpa][Tle]YHT[Trp(7-aza)][Nva]EF[Nva]TC-NH2; linker 1-12 via mXylylene) | 1 to 21 | – |
| CCC[C@@H]1NC(=O)[C@H](Cc2c[nH]c3ncccc23)NC(=O)[C@H]([C@@H](C)O)NC(=O)[C@H](Cc2c[nH]cn2)NC(=O)[C@H](Cc2ccc(O)cc2)NC(=O)[C@H](C(C)(C)C)NC(=O)CCSCc2cccc(c2)CSC[C@@H](C(N)=O)NC(=O)[C@H]([C@@H](C)O)NC(=O)[C@H](CCC)NC(=O)[C@H](Cc2ccc3[nH]ncc3c2)NC(=O)[C@H](CCC(=O)O)NC1=O [Compound 257] ([Mpa][Tle]YHT[Trp(7-aza)][Nva]E[X8][Nva]TC-NH2; linker 1-12 via mXylylene) | 50 to 100 | – |
| CCC[C@H](NC(C)=O)C(=O)N[C@H]1CSCc2cccc(c2)CSC[C@@H](C(N)=O)NC(=O)[C@H]([C@@H](C)O)NC(=O)[C@H](CCC)NC(=O)[C@H](Cc2ccc(O)cc2)NC(=O)[C@H](C)NC(=O)[C@H](CCC)NC(=O)[C@H](Cc2c[nH]c3ncccc23)NC(=O)[C@H]([C@@H](C)O)NC(=O)[C@H](Cc2cnc[nH]2)NC(=O)[C@H](Cc2ccc(O)cc2)NC(=O)[C@H](C(C)(C)C)NC1=O [Compound 258] (Ac-[Nva]C[Tle]YHT[Trp(7-aza)][Nva]AY[Nva]TC-NH2; linker 2-13 via mXylylene) | 50 to 100 | – |
| CCC[C@@H]1NC(=O)[C@H](Cc2c[nH]c3ncccc23)NC(=O)[C@H]([C@@H](C)O)NC(=O)[C@H](Cc2c[nH]cn2)NC(=O)[C@H](Cc2ccc(O)cc2)NC(=O)[C@H](C(C)(C)C)NC(=O)CCSCc2cccc(c2)CSC[C@@H](C(N)=O)NC(=O)[C@H]([C@@H](C)O)NC(=O)[C@H](CC2CC2)NC(=O)[C@H](Cc2ccc(O)cc2)NC(=O)[C@H](CCC(=O)O)NC1=O [Compound 262] ([Mpa][Tle]YHT[Trp(7-aza)][Nva]EY[Ala(cPr)]TC-NH2; linker 1-12 via mXylylene) | 1 to 21 | – |
| CCC[C@@H]1NC(=O)[C@H](Cc2c[nH]c3ncccc23)NC(=O)[C@H]([C@@H](C)O)NC(=O)[C@H](Cc2c[nH]cn2)NC(=O)[C@H](Cc2ccc(O)cc2)NC(=O)[C@H](C(C)(C)C)NC(=O)CCSCc2cccc(c2)CSC[C@@H](C(N)=O)NC(=O)[C@H]([C@@H](C)O)NC(=O)[C@H](CCC)NC(=O)[C@H](Cc2ccc(F)cc2)NC(=O)[C@H](CCC(=O)O)NC1=O [Compound 266] ([Mpa][Tle]YHT[Trp(7-aza)][Nva]E[Phe(4-F)][Nva]TC-NH2; linker 1-12 via mXylylene) | 1 to 21 | – |
| CCC[C@@H]1NC(=O)[C@H](Cc2c[nH]c3ncccc23)NC(=O)[C@H]([C@@H](C)O)NC(=O)[C@H](Cc2c[nH]cn2)NC(=O)[C@H](Cc2ccc(O)cc2)NC(=O)[C@H](C(C)(C)C)NC(=O)CCSCc2cccc(c2)CSC[C@@H](C(N)=O)NC(=O)[C@H]([C@@H](C)O)NC(=O)[C@H](CCC)NC(=O)[C@H](Cc2ccc(F)cc2)N(C)C(=O)[C@H](CCC(=O)O)NC1=O [Compound 267] ([Mpa][Tle]YHT[Trp(7-aza)][Nva]E[NMePhe(4-F)][Nva]TC-NH2; linker 1-12 via mXylylene) | 50 to 100 | – |
| CCC[C@@H]1NC(=O)[C@H](Cc2ccc(O)cc2)NC(=O)[C@H](CCC(=O)O)NC(=O)C(C)(C)NC(=O)[C@H](Cc2c[nH]c3ncccc23)NC(=O)[C@H]([C@@H](C)O)NC(=O)[C@H](Cc2c[nH]cn2)NC(=O)[C@H](Cc2ccc(O)cc2)NC(=O)[C@H](C(C)(C)C)NC(=O)CCSCc2cccc(c2)CSC[C@@H](C(N)=O)NC(=O)[C@H]([C@@H](C)O)NC1=O [Compound 268] ([Mpa][Tle]YHT[Trp(7-aza)][Aib]EY[Nva]TC-NH2; linker 1-12 via mXylylene) | 0.1 to 1 | – |
| CCC[C@@H]1NC(=O)[C@H](Cc2ccncc2)NC(=O)[C@H]([C@@H](C)O)NC(=O)[C@H](Cc2c[nH]cn2)NC(=O)[C@H](Cc2ccc(O)cc2)NC(=O)[C@H](C(C)(C)C)NC(=O)CCSCc2cccc(c2)CSC[C@@H](C(N)=O)NC(=O)[C@H]([C@@H](C)O)NC(=O)[C@H](CCC)NC(=O)[C@H](Cc2ccc(O)cc2)NC(=O)[C@H](CCC(=O)O)NC1=O [Compound 270] ([Mpa][Tle]YHT[4Pal][Nva]EY[Nva]TC-NH2; linker 1-12 via mXylylene) | 50 to 100 | – |
| CCC[C@@H]1NC(=O)[C@H](Cc2ccccn2)NC(=O)[C@H]([C@@H](C)O)NC(=O)[C@H](Cc2c[nH]cn2)NC(=O)[C@H](Cc2ccc(O)cc2)NC(=O)[C@H](C(C)(C)C)NC(=O)CCSCc2cccc(c2)CSC[C@@H](C(N)=O)NC(=O)[C@H]([C@@H](C)O)NC(=O)[C@H](CCC)NC(=O)[C@H](Cc2ccc(O)cc2)NC(=O)[C@H](CCC(=O)O)NC1=O [Compound 271] ([Mpa][Tle]YHT[2Pal][Nva]EY[Nva]TC-NH2; linker 1-12 via mXylylene) | 50 to 100 | – |
| CCC[C@@H]1NC(=O)[C@H](Cc2cccnc2)NC(=O)[C@H]([C@@H](C)O)NC(=O)[C@H](Cc2c[nH]cn2)NC(=O)[C@H](Cc2ccc(O)cc2)NC(=O)[C@H](C(C)(C)C)NC(=O)CCSCc2cccc(c2)CSC[C@@H](C(N)=O)NC(=O)[C@H]([C@@H](C)O)NC(=O)[C@H](CCC)NC(=O)[C@H](Cc2ccc(O)cc2)NC(=O)[C@H](CCC(=O)O)NC1=O [Compound 272] ([Mpa][Tle]YHT[3Pal][Nva]EY[Nva]TC-NH2; linker 1-12 via mXylylene) | 50 to 100 | – |
